The values below are quoted from earlier work in patent US20240269238A1, “Therapeutic Regimens and Methods for Reducing Body Weight in a Subject with Fatty Liver Disease using a GLP-1R and GCGR Agonist” (Spitfire Pharma LLC, priority 2022, published 2024).

One data set concerns liver fat content. The following applies: 6 weeks; cited from earlier work.
The conditions of data set [1]: over 26 weeks of administration; cited from earlier work.

In the case of `CCCCCCCCCCCCCCCC(=O)N[C@@H](CCC(=O)NCCCC[C@H](NC(=O)[C@H](CC(=O)O)NC(=O)[C@H](CO)NC(=O)[C@@H](NC(=O)[C@H](Cc1ccccc1)NC(=O)[C@@H](NC(=O)CNC(=O)[C@H](CCC(N)=O)NC(=O)[C@H](CO)NC(=O)[C@@H](N)Cc1c[nH]cn1)[C@@H](C)O)[C@@H](C)O)C(=O)N[C@@H](CO)C(=O)N[C@@H](CCC(=O)O)C(=O)N[C@@H](Cc1ccc(O)cc1)C(=O)N[C@@H](CC(C)C)C(=O)N[C@@H](CC(=O)O)C(=O)N[C@@H](CO)C(=O)N[C@@H](CCC(=O)O)C(=O)N[C@@H](CCCNC(=N)N)C(=O)N[C@@H](C)C(=O)N[C@@H](CCCNC(=N)N)C(=O)N[C@@H](CC(=O)O)C(=O)N[C@@H](Cc1ccccc1)C(=O)N[C@H](C(=O)N[C@@H](C)C(=O)N[C@@H](Cc1c[nH]c2ccccc12)C(=O)N[C@@H](CC(C)C)C(=O)N[C@@H](CCC(=O)O)C(=O)N[C@@H](C)C(=O)NCC(=O)NCC(=O)O)C(C)C)C(=O)O` [cotadutide], the “reduction in liver fat content” value in the data set on liver fat content is 39%. Moreover, the weight loss in data set [1] is reported as 5.4%.
